Experimental data published in patent US5852033A, “Methods of treatment using lamellarin-class alkaloids” (Pharma Mar, s.a., priority 1995, dated 1998).
Converted amounts (≈) assume the structure as drawn. Like-named read-outs stand apart in the source and are kept apart here.

Tests used:
[1] = tested on: P-388; experiment: LAMELLARINS TOXICITY TO SENSITIVE TUMOR CELL LINE P-388 (MTT); type: cell-based; conditions: Mus musculus, P388, 72 h, read-out: ACTIVITY: IC50
Experimental: (§1) Sensitive and MDR cells were maintained, in logarithmic phase of growth, in Eagle's Minimum Essential Medium, with Earle's Balanced Salts, with non-essential amino acids, with 2.0 mM L-glutamine, without sodium bicarbonate (EMEM/neaa), supplemented with 5% Fetal Calf Serum (FCS), 10^-2 M sodium bicarbonate and 0.1 g/l penicillin G+0.1 g/l streptomycin sulfate.
(§2) In Vitro cell cytotoxicity was determined using the 3-[4,5-dimethylthiazol-2-yl]-2,5-dipheniltetrazolium bromide (MTT), from Sigma Ref:M-2128, for quantitative measurement of cell growth and viability. See, T. Mosmann, "Rapid Colorimetric Assay for Cellular Growth and Survival: Application to Proliferation and Cytotoxicity Assays," Journal of Immunological Methods, 65: 55-63 (1983).
(§3) The tumor cell lines employed have been: P-388 (ATCC CCL 46), suspension culture of a lymphoid neoplasm from a DBA/2 mouse and its corresponding MDR cell line P-388/SCHABEL; CHOB1 (ATCC CCL 16), monolayer culture of chinese hamster ovary and its corresponding MDR cell line CHOC5. See, Rauscher Ill, et al., "Characterization of Auromycin-Resistant Hamster Cell Mutants that Display a Multidrug Resistance Phenotype," Molecular Pharmacology, 38: 198-206 (1990).
(§4) This form of assay employs 96-well cell culture plates […]. Cells were seeded into wells at 1×10^3 cells per well in 100 μl aliquots of EMEM 5% FCS containing different concentrations of the corresponding lamellarins and other compounds (standards) to be tested. Two separate sets of cultures without drugs were seeded, one as control of growth to ensure that cells remained in exponential phase of growth, and another without cells as control of medium. All determinations were carried out in duplicate.
(§5) After three days of incubation at 37° C., 10% CO2 in a 98% humid atmosphere, 150 μg of MTT is added to each well in 50 μl aliquots of assay medium. Plates were incubated for an additional 4 hours and 100 μl aliquots of isopropanol were added to each well. The broad absorption spectrum for the isopropanol solution of this crystal is optimal at 570 nm. Optical density values were obtained with the help of a Dynatech microplate reader and the results of the assay were used to generate graphics from which IC50 was calculated; i.e., wherein the IC50 is the test concentration which produces 50% cell growth inhibition.

[2] = tested on: P-388/SCHABEL (MDR); experiment: LAMELLARINS TOXICITY TO RESISTANT (MDR) TUMOR CELL LINE P-388/SCHABEL (MTT); type: cell-based; conditions: Mus musculus, P388, 72 h, read-out: ACTIVITY: IC50
Experimental: as §1, §2, §3, §4, §5

[3] = tested on: CHOB1; experiment: LAMELLARINS TOXICITY TO SENSITIVE TUMOR CELL LINE CHOB1 (MTT); type: cell-based, chinese hamster; conditions: Cricetulus griseus, 72 h, read-out: ACTIVITY: IC50
Experimental: as §1, §2, §3, §4, §5

[4] = tested on: CHOC5 (MDR); experiment: LAMELLARINS TOXICITY TO RESISTANT (MDR) TUMOR CELL LINE CHOC5 (MTT); type: cell-based, chinese hamster; conditions: Cricetulus griseus, 72 h, read-out: ACTIVITY: IC50
Experimental: as §1, §2, §3, §4, §5

[5] = tested on: HT-29; experiment: Lamellarin in vitro activity vs. tumor cell lines, HT-29; type: cell-based; conditions: Homo sapiens; HT-29, Table IV
[6] = tested on: MLR; experiment: Immunomodulatory activity (LcV:MLR); type: cell-based; conditions: in words
[7] = tested on: P388; experiment: Lamellarin in vitro activity vs. tumor cell lines, P388; conditions: Mus musculus
[8] = tested on: A549; experiment: Lamellarin in vitro activity vs. tumor cell lines, A549; conditions: for IC50: Homo sapiens; for in vitro antitumor activities: compared with lamellarins I, K and L, particularly A549 cells
[9] = tested on: MEL-28; experiment: Lamellarin in vitro activity vs. tumor cell lines, MEL-28; type: cell-based; conditions: Homo sapiens, SK-MEL-28; MEL-28, Table IV
[10] = tested on: P-388/SCHABEL; experiment: Adriamycin toxicity to resistant cells (MDR) in presence or absence of reversing agents, P-388/SCHABEL; type: cell-based; conditions: Mus musculus, P388; control, Adriamycin only, R.A. 0 μg/ml
Experimental: (§6) Gain of Sensitivity (G.S.) = IC50 Control/IC50 R.A.
as §1, §4
(§7) Plates were incubated for an additional 4 hours and 100 μl aliquots of isopropanol were added to each well. The broad absorption spectrum for the isopropanol solution of this crystal is optimal at 570 nm.

[11] = tested on: CHOC5; experiment: Adriamycin toxicity to resistant cells (MDR) in presence or absence of reversing agents, CHOC5; type: cell-based, chinese hamster; conditions: Cricetulus griseus; control, Adriamycin only, R.A. 0 μg/ml
Experimental: as §6, §1, §4, §7

[12] = tested on: P388 Lymphocytic Leukemia; experiment: In vivo anti-tumor activity vs P388 lymphocytic leukemia; design: species or system mouse; conditions: total 75.000 mg/kg, QD 1-5, ip
[13] = P-388, sensitive, MTT, three days
[14] = P-388/SCHABEL (MDR), MTT, three days
[15] = CHOB1, sensitive, MTT, three days
[16] = P388, read-out: cytotoxicity IC50
[17] = A549, read-out: cytotoxicity IC50

Structure (SMILES) | IC50 [1, 13] [µg/mL] | IC50 [2, 14] [µg/mL] | IC50 [3, 15] [µg/mL] | IC50 ([4]; CHOC5 (MDR), MTT, three days) [µg/mL] | IC50 [5] [µg/mL] | IC50 ([7]; P388) [µg/mL] | IC50 ([8]; A549) [µg/mL] | also measured
COc1ccc(-c2c3n(c4c(=O)oc5cc(O)c(OC)cc5c24)CCc2cc(O)c(OC)cc2-3)cc1O [Lamellarin L] | 0.6 (≈ 1.2 µM) | 0.7 (≈ 1.4 µM) | 0.4 (≈ 0.798 µM) | 0.6 (≈ 1.2 µM) | 2 (≈ 3.99 µM) | 0.25 (≈ 0.499 µM) | 0.25 (≈ 0.499 µM) | immunomodulatory activity [6]: moderate immunomodulatory activity; IC50 [7, 16]: ~0.25 µg/mL (≈ 0.499 µM); IC50 [8, 17]: ~0.25 µg/mL (≈ 0.499 µM)
COc1ccc(-c2c3n(c4c(=O)oc5cc(OC(C)=O)c(OC)cc5c24)CCc2cc(OC(C)=O)c(OC)cc2-3)cc1OC(C)=O [Lamellarin L-triacetate] | 1.5 (≈ 2.39 µM) | 1.5 (≈ 2.39 µM) | 1.5 (≈ 2.39 µM) | 1.5 (≈ 2.39 µM) |  |  |  | 
COc1cc(-c2c3c4cc(OC)c(O)cc4oc(=O)c3n3ccc4c(OC)c(OC)c(OC)cc4c23)ccc1O [Lamellarin B] | 5.5 (≈ 10.1 µM) | 5.5 (≈ 10.1 µM) | 3 (≈ 5.52 µM) | 10 (≈ 18.4 µM) |  |  |  | 
C/C=C/C[C@@H](C)C(=O)[C@H]1C(=O)N[C@@H](C(C)C)C(=O)N(C)CC(=O)N(C)[C@@H](CC(C)C)C(=O)N[C@@H](C(C)C)C(=O)N(C)[C@@H](CC(C)C)C(=O)N[C@@H](C)C(=O)N[C@H](C)C(=O)N(C)[C@@H](CC(C)C)C(=O)N(C)[C@@H](CC(C)C)C(=O)N(C)[C@@H](C(C)C)C(=O)N1C [PSC833, reference compound] | 0.02 (≈ 0.0165 µM) | 0.05 (≈ 0.0412 µM) | 0.04 (≈ 0.0329 µM) | 0.1 (≈ 0.0823 µM) |  |  |  | 
COc1cc2c(cc1O)CCn1c-2c(-c2ccc(OC)c(OC)c2)c2c3cc(OC)c(O)cc3oc(=O)c21 [Lamellarin J] | 1.5 (≈ 2.91 µM) | 2 (≈ 3.88 µM) | 0.3 (≈ 0.582 µM) | 0.6 (≈ 1.16 µM) | 2.5 (≈ 4.85 µM) | 0.1 (≈ 0.194 µM) | 0.025 (≈ 0.0485 µM) | IC50 [9]: 2.5 µg/mL (≈ 4.85 µM); in vitro antitumor activities [8]: significantly better, particularly against A549 cells, than the lamellarins I, K and L
COc1cc2c(cc1O)oc(=O)c1c2c(-c2ccc(OC)c(OC)c2)c2n1CCc1c-2cc(OC)c(OC)c1OC [Lamellarin I] | 2.5 (≈ 4.47 µM) | 2.5 (≈ 4.47 µM) | 0.2 (≈ 0.357 µM) | 1 (≈ 1.79 µM) | 2 (≈ 3.57 µM) | 1 (≈ 1.79 µM) | 1 (≈ 1.79 µM) | IC50 [7, 16]: ~0.25 µg/mL (≈ 0.447 µM); IC50 [8, 17]: ~0.25 µg/mL (≈ 0.447 µM)
COc1cccc2c1C(=O)c1c(O)c3c(c(O)c1C2=O)C[C@@](O)(C(=O)CO)C[C@@H]3O[C@H]1C[C@H](N)[C@H](O)[C@H](C)O1 [Adriamycin, reference compound] | 0.15 (≈ 0.276 µM) | 1.2 (≈ 2.21 µM) | 0.15 (≈ 0.276 µM) | 3 (≈ 5.52 µM) |  |  |  | IC50 [10]: 1.2 µg/mL; IC50 [11]: 3 µg/mL
COc1ccc(-c2c3c4cc(OC)c(OC(C)=O)cc4oc(=O)c3n3ccc4cc(OC(C)=O)c(OC)cc4c23)cc1OC(C)=O [Lamellarin N-triacetate] | 0.09 (≈ 0.144 µM) | 0.2 (≈ 0.32 µM) | 0.06 (≈ 0.0959 µM) | 0.1 (≈ 0.16 µM) | 5 (≈ 7.99 µM) | 0.1 (≈ 0.16 µM) | 0.012 (≈ 0.0192 µM) | IC50 [9]: 5 µg/mL (≈ 7.99 µM); in vitro antitumor activities [8]: significantly better, particularly against A549 cells, than the lamellarins I, K and L
COc1cc(-c2c3c4cc(OC)c(OC(C)=O)cc4oc(=O)c3n3ccc4c(OC(C)=O)c(OC)c(OC)cc4c23)ccc1OC(C)=O [Lamellarin M-triacetate] | 0.6 (≈ 0.915 µM) | 0.7 (≈ 1.07 µM) | 0.5 (≈ 0.763 µM) | 2 (≈ 3.05 µM) |  |  |  | 
COc1ccc(CCN(C)CCCC(C#N)(c2ccc(OC)c(OC)c2)C(C)C)cc1OC (centres unmarked) [Verapamil, reference compound] | 10 (≈ 22 µM) | 10 (≈ 22 µM) | 9 (≈ 19.8 µM) | 4 (≈ 8.8 µM) |  |  |  | 
COc1cc(-c2c3c4cc(OC)c(OC(C)=O)cc4oc(=O)c3n3ccc4cc(OC(C)=O)c(OC)cc4c23)ccc1OC(C)=O [Lamellarin D-triacetate] | 0.07 (≈ 0.112 µM) | 0.09 (≈ 0.144 µM) | 0.03 (≈ 0.048 µM) | 0.04 (≈ 0.0639 µM) |  |  |  | 
COc1cc(-c2c3c4cc(OC)c(O)cc4oc(=O)c3n3ccc4c(O)c(OC)c(OC)cc4c23)ccc1O [Lamellarin M] |  |  |  |  | 0.5 (≈ 0.944 µM) | 0.05 (≈ 0.0944 µM) | 0.025 (≈ 0.0472 µM) | IC50 [1]: 0.08 µg/mL (≈ 0.151 µM); IC50 [2]: 0.09 µg/mL (≈ 0.17 µM); IC50 [3]: 0.04 µg/mL (≈ 0.0755 µM); IC50 [4]: 0.09 µg/mL (≈ 0.17 µM); IC50 [9]: 0.5 µg/mL (≈ 0.944 µM); in vitro antitumor activities [8]: significantly better, particularly against A549 cells, than the lamellarins I, K and L
COc1cc(-c2c3n(c4c(=O)oc5cc(O)c(OC)cc5c24)CCc2c-3cc(OC)c(OC)c2O)ccc1O [Lamellarin K] | 0.1 (≈ 0.188 µM) | 0.1 (≈ 0.188 µM) | 0.1 (≈ 0.188 µM) | 0.4 (≈ 0.753 µM) | 1 (≈ 1.88 µM) | 0.25 (≈ 0.47 µM) | 0.25 (≈ 0.47 µM) | immunomodulatory activity [6]: moderate immunomodulatory activity; % T/C [12]: > 135.0%; Body Weight Change Day 5 [12]: 1.2 gm; Body Weight Day 5 [12]: 20.7 ± 0.5 gm; Mean Survival Time [12]: 28.3 ± 5.9; Body Weight Day 0 ([12]; baseline): 19.5 ± 0.5 gm; IC50 [7, 16]: ~0.25 µg/mL (≈ 0.47 µM); IC50 [8, 17]: ~0.25 µg/mL (≈ 0.47 µM)
COc1cc(-c2c3n(c4c(=O)oc5cc(OC(C)=O)c(OC)cc5c24)CCc2c-3cc(OC)c(OC)c2OC(C)=O)ccc1OC(C)=O [Lamellarin K-triacetate] | 0.06 (≈ 0.0912 µM) | 0.1 (≈ 0.152 µM) | 0.1 (≈ 0.152 µM) | 0.1 (≈ 0.152 µM) |  |  |  | 
COc1cc(-c2c3n(c4c(=O)oc5cc(O)c(OC)cc5c24)C(O)Cc2c-3cc(OC)c(OC)c2OC)ccc1O (centres unmarked) [Lamellarin A] | 0.5 (≈ 0.89 µM) | 0.5 (≈ 0.89 µM) | 0.2 (≈ 0.356 µM) | 0.4 (≈ 0.712 µM) |  |  |  | 
COc1ccc(-c2c3n(c4c(=O)oc5cc(OC(C)=O)c(OC)cc5c24)CCc2c-3cc(OC)c(OC)c2OC)cc1OC [Lamellarin I-acetate] | 5.5 (≈ 9.14 µM) | 5.5 (≈ 9.14 µM) | 2.5 (≈ 4.16 µM) | 5 (≈ 8.31 µM) |  |  |  | 
COc1ccc(-c2c3n(c4c(=O)oc5cc(OC)c(OC)cc5c24)CCc2c-3cc(OC)c(OC)c2OC)cc1OC [Lamellarin I-Methylate] | 2.5 (≈ 4.36 µM) | 3 (≈ 5.23 µM) | 0.5 (≈ 0.872 µM) | 2.5 (≈ 4.36 µM) |  |  |  | 
